Data set [1] relates to SARS-CoV-2 (Isolate USA-WA1/2020). The class given is cell-based. The conditions noted are these: 24 h pre-treatment, compared to DMSO treated infected control.
Data set [2] has as its system SARS-CoV-2. It is filed as cell-based. The conditions noted are these: post-treatment, added after 1 hour infection, compared to DMSO treated infected control, Figure 3.
Data set [3] concerns SARS-CoV-2. The class given is cell-based.
The test system of data set [4] is SARS-CoV-2. The conditions noted are these: for patients converted to negative SARS-CoV-2 test (of the 10 patients enrolled): 500 mg twice daily.
For data set [5] the following is noted: cited from earlier work.
The test system of data set [6] is SARS-CoV-2 (Isolate USA-WA1/2020). Put plainly: Prophylactic and therapeutic treatment of SARS-CoV-2 infected hamsters; lung viral titer (TCID50 and plaque assay).
Setting [7] is: prophylactic and therapeutic conditions, both cell types (NHBE and Vero).

Like-named read-outs stand apart in the source and are kept apart here.

In the case of `CCCN(CCC)S(=O)(=O)c1ccc(C(=O)O)cc1` [probenecid, 4-[(dipropylamino)sulfony1] benzoic acid], the “reduction in plaque formation” value is given as 50% in data set [1] (0.0001µM, another experiment, 6 well plate, Figure 2); 72% in data set [1] (0.1µM, Vero E6, MOI 0.01, 4 days, Figure 1); ~ 89% in data set [1] (5µM, Vero E6, MOI 0.01, 4 days, Figure 1); ~ 93% in data set [1] (5µM, another experiment, 6 well plate, Figure 2); 40% in data set [2] (0.0001µM); ~ 90% in data set [2] (5µM). For the same compound, in data set [3] (setting [7]), the “IC50s compared with remdesivir” value is on record as “lower”. Besides, the “IC90s compared with remdesivir” value in data set [3] (setting [7]) is “lower”. In addition, the virus plaque formation result in data set [3] (treated prophylactically or therapeutically, compared to controls) is “dose-dependent decrease”. Moreover, the “patients converted to negative SARS-CoV-2 test (of the 10 patients enrolled)” value in data set [4] (Day 4 of treatment) is listed as 2; in data set [4] (Day 9 of treatment), “four”; in data set [4] (Day 14 of treatment), “nine”. The “viral shedding of SARS-CoV-2” value in data set [4] (compared to literature pooled median of 17.2 days, all but one patient (Patient 003)) is under 17.2 days. In data set [4] (no scored grading system used, shortness of breath and loss of taste or smell persisted), the patient symptoms result is given as “showed improvement”. Besides, the “coagulation and inflammatory markers” value in data set [4] (with the exception of one patient (Patient 001)) is reported as “mostly maintained within normal ranges”. Also, the lipid solubility result in data set [5] was “highly lipid soluble”. Further, in data set [6] (2 mg and 200 mg treatment, single dose), the “effectiveness of the two doses compared” value is on record as “similarly effective”. The same compound came in with a lung virus titers in data set [6] (day 3 post-infection, all probenecid-treated hamsters (2 or 200 mg/kg, prophylactic or therapeutic, single dose), PBS-treated 1E9+) of 1E5. Further, the lung virus entry in data set [6] (day 7 post infection) is “no detectable lung virus”. In data set [6] (hamster, in vivo), the “prophylactic compared with therapeutic treatment” value is given as “worked similarly”. In addition, the “decrease of lung virus titers” value in data set [6] (hamsters, compared to PBS-treated) was “several logs”.

The values above are taken from patent publication EP4132503B1, “PROBENECID FOR USE IN THE TREATMENT OF SARS-CO-V2 INFECTIONS” (priority 2020, dated 2021).
